For one experiment, the system named is E. coli. Briefly: Antimicrobial test, MIC against E. coli. The class given is cell-based. The following applies: Gram-negative bacteria E. coli (n = 2). As for the experimental part: (§1) The solutions based on the Q-PHB-PDMAEMA were tested for efficacy in killing clinically significant pathogens: the […] and Gram-negative bacteria (E. coli).

The next experiment relates to S. aureus. Briefly: Antimicrobial test, MIC against S. aureus. Format: cell-based. As to conditions: Gram-positive bacteria S. aureus (n = 2). As for the experimental part: as §1

Ends that are not written are not given here.

In general, MIC refers to the least concentration at which growth counts as inhibited. Low readings indicate inhibition by little substance, high ones a need for much substance. Regarding GIGKFLHSAGKFGKAFVGEIMKS [Magainin I], the MIC in the experiment with E. coli and in the experiment on S. aureus was 130 µg/mL throughout.

For the origin of these results see patent US10450421B2, “Synthesis of multiarm poly[(R)-3-hydroxybutyrate] and its derivatives” (AGENCY FOR SCIENCE, TECHNOLOGY AND RESEARCH, priority 2015, dated 2019).
